Results on 2 compounds are retold here after US5877185A, “Synergistic compositions useful as anti-tumor agents” (priority 1995, dated 1999).

Where two headings read alike, the source gives them in different places.

One data set has as its system E ras cells. The experiment in a line: cytostatic and cytocidal activity. In kind it is cell-based, bovine. As to conditions: Bos taurus, average of three trials. An excerpt:
pADPRT ligands that oxidize CCHC zinc fingers are not unique inhibitors of pADPRT. […] Hakam et al., FEBS Lett. 193:1-4 (1991). These ligands bind non-covalently to the nicotinamide site and internal DNA-seeking domains of pADPRT. Bauer et al., manuscript in preparation (1994). In contrast, CCHC-oxidizing ligands also bind non-covalently to the nicotinamide site, but initially attack the F1 zinc finger oxidatively. Id. […] Id. […] U.S. Ser. No. 08/076,313 filed Jun. 11, 1993.
Each value is the average of three trials. Each trial deviated from the average by no more than twenty percent. […] Another isomer of the iodo-nitro-benzamide series, 2-iodo-4-nitrobenzamide had no effect at the concentrations given above.

The next data set deals with L 1210 cells. The experiment in a line: cytotoxic effect of IABP and INO2 BA, alone and combined, on L 1210 cell growth. The format is cell-based, murine. As to conditions: Mus musculus, L1210, 72 h; INO2 BA 64 μM, three days; read-out: decrease of L 1210 cell proliferation. Here is the method:
64 μM INO2 BA decreased L 1210 cell proliferation by approximately 80% over a three day growth period.

The subject of another data set is MT-2 cells. The experiment in a line: effectiveness on human T-lymphoblastoid leukemia cells, MT-2. The format is cell-based. Here is the method:
IV. Effectiveness of 4-(halogen)-3-nitro-benzamide compounds as tested with human T-lymphoblastoid leukemia cell lines in culture.
Cells (MT-2 cells, or, in case of 3-fluoro-4-nitro-benzamide, CEM-4 cells) were seeded at a density of 0.1×10^5 /ml; the drugs were added at the time of seeding. The cultures were incubated at 37° C. in a 5% CO2 atmosphere and the cells numbers were monitored by hemacytometer counting in 24 hr intervals.

In a further data set the test system is HL 60. The data set can be described thus: cytotoxicity of INO2 BA with and without BSO, HL 60. The format is cell-based. As to conditions: Homo sapiens, INO2 BA alone, 48 hours. Here is the method:
(§1) The concentration of BSO was 1 mM for all cell lines except HT 144, where the concentration was 0.25 mM. Cells were seeded in the recommended growth medium at a density of 1.5×10^4 cell/cm^2 into 2 cm^2 wells. Drugs were added simultaneously 4 hours after seeding, and incubation was continued for 48 hours at 37° C. in a 5% CO2 atmosphere. For assessment of drug effects cells were detached by trypsinization and counted in a hemacytometer.
(§2) Cell lines Nos. 1-4 were obtained from Dr. C. Benz, University of California, San Francisco. MDA 468 and MCF-7 human mammary cancer lines, MCF-7-B-ADR drug-resistant mammary cancer line, Du 145 drug-resistant human prostate cancer line, HT 144 human melanoma cell line, Hep-G2 human hepatocellular carcinoma line, and PC-12 rat pheochromocytoma line were obtained from the University of California Cell Culture Facility.

A further data set concerns Du 145. The data set can be described thus: cytotoxicity of INO2 BA with and without BSO, Du 145. The format is cell-based. To be noted: Homo sapiens. Here is the method:
as §1, §2

The test system of another data set is MDA-468. The experiment in a line: cytotoxicity of INO2 BA with and without BSO, MDA-468. In kind it is cell-based. To be noted: Homo sapiens. Here is the method:
as §1, §2

The test system of the next data set is CEM-4. The experiment in a line: cytotoxicity of INO2 BA with and without BSO, CEM-4. To be noted: Homo sapiens. The format is cell-based. Here is the method:
as §1, §2

The subject of a further data set is MCF-7-B-ADR. The data set can be described thus: cytotoxicity of INO2 BA with and without BSO, MCF-7-B-ADR. The format is cell-based. As to conditions: Homo sapiens. Here is the method:
as §1, §2

Another data set concerns L 1210. The data set can be described thus: cytotoxicity of INO2 BA with and without BSO, L 1210. In kind it is cell-based, murine. As to conditions: Mus musculus, L1210, INO2 BA alone, 48 hours. Here is the method: as §1, §2
For the next data set, the system named is Molt-4. The experiment in a line: cytotoxicity of INO2 BA with and without BSO, Molt-4. As to conditions: Homo sapiens, INO2 BA alone, 48 hours. The format is cell-based. Here is the method:
as §1, §2

Another data set concerns HIV-1 (LAV strain). The experiment in a line: in vitro anti-retroviral testing (HIV-1 inactivation) in human peripheral lymphocytes (PBL). In kind it is cell-based. Here is the method: Both 6-NOBP and NOBA were tested on viral growth of HIV-1 (LAV strain) in phytohemagglutinin-stimulated human peripheral lymphocytes (PBL). An HIV-1 stock having an infectivity titer of 100,000 TCID50 was incubated for 30 min. at 22° C. with either of the drugs. Control HIV samples, containing no drugs, were incubated in the same manner. […] At the end of this incubation cultures were assayed for productive infection by an immunoassay for HIV-1 antigens and by reverse transcriptase as described in McDougal et al., J. Immunol. Methods 76:171-183 (1985). Virus titers were expressed as percentile values (percent infected cultures) compared to the controls, containing HIV dilutions which were not preincubated with the C-nitroso drugs. In a separate series of experiments, HIV-1 dilutions and C-nitroso drugs (see upper abscissa) were not preincubated but were added simultaneously to lymphocytes in exactly the same concentrations as described previously (i.e., following preincubation) and viral growth monitored 9 days later.

Data set [1] in a line: reduction by GSH and ascorbate in in vitro chemical tests. In kind it is physicochemical.
The test system of data set [2] is HIV-1 (MN strain) virions. The data set can be described thus: zinc loss from treatment of HIV-1 virions with NOBA. In kind it is biochemical. Here is the method:
Experiments were performed to determine if NOBA is capable of ejecting zinc from intact virions. HIV-1 (MN strain) was produced, purified and concentrated as described in Bess et al., J. Virol. 66:840-847 (1992). The concentrated virus was diluted to 60 times that of culture fluid in TNE buffer (0.01M Tris-HCl, 0.1M NaCl, 1 mM EDTA, pH 7.2) and incubated with 3000 or 6000 μM NOBA at 37° C. The virus was then pelleted and washed with TNE buffer to remove weakly bound zinc. The quantity of zinc in the resulting viral pellets was determined as described in Bess et al., J. Virol. 66:840-847 (1992).

Data set [3] deals with human immunodeficiency virus HIV-1. As to conditions: human lymphocytes; cited from earlier work.
Setting [4] is: INO2 BA alone, 48 hours, read-out: I50.

For `NC(=O)c1ccc(I)c([N+](=O)[O-])c1` [INO2 BA, 4-iodo-3-nitrobenzamide], the IC50 in the data set with E ras cells (E ras cells, read-out: Cytostatic Effect I50) came to 60 µM; in the data set with E ras cells (with 0.8 mM BSO, read-out: Cytocidal Effect I50), 4 µM; with MT-2 cells (Homo sapiens, MT2, concentration decreasing cell viability to 50% of control, 48 h incubation, read-out: I50) it was 70 µM; in the data set with HL 60 (read-out: I50), 70 µM; in the data set with Du 145 (DU-145, INO2 BA alone, 48 hours, read-out: I50), 120 µM; in the data set with MDA-468 (setting [4]), 80 µM. Moreover, the IC50 in the data set on CEM-4 (CEM-4, INO2 BA alone, 48 hours, read-out: I50) came to 80 µM; in the data set with MCF-7-B-ADR (setting [4]), 90 µM; with L 1210 (read-out: I50), 128 µM; with Molt-4 (read-out: I50), 70 µM. Moreover, the inhibition at 64 µM in the data set on L 1210 cells was about 80%. Further, the LD100 in the data set on MT-2 cells (zero viability after 48 hours of incubation) amounted to 190. In addition, the IC100 worked out at 125 µM in the data set with HL 60 (read-out: LD100); 250 µM in the data set with Du 145 (DU-145, 48 h, read-out: LD100); 180 µM in the data set on MDA-468 (48 h, read-out: LD100); 196 µM in the data set with CEM-4 (CEM-4, 48 h, read-out: LD100); 220 µM in the data set on MCF-7-B-ADR (48 h, read-out: LD100); 256 µM with L 1210 (read-out: LD100). Besides, in the data set on Molt-4 (read-out: LD100), the IC100 was found to be 196 µM.

Turning to `NC(=O)c1cccc(N=O)c1` [NOBA, 3-nitrosobenzamide], the “TCID50 (calculated infectious titer after treatment)” value in the data set with HIV-1 (LAV strain) (100 μM) is recorded as 11 TCID50. Besides, the “decrease of relative amount of infectious virus available to cause 50% infected cultures” value with HIV-1 (LAV strain) (30 min. at 22° C., FIG. 7A) worked out at 4 log units. Moreover, the log reduction at 100 µM in the data set on HIV-1 (LAV strain) (Human immunodeficiency virus 1, Lymphocyte, 0.5 h, 100 μM, of TCID50, read-out: Decrease) worked out at 4.2. Further, the inhibition at 100 µM with HIV-1 (LAV strain) (Human immunodeficiency virus 1, Lymphocyte, 100 μM) was over 100%. Further, in data set [1], the “reduction to the corresponding hydroxyl amines” value is recorded as “rapidly reduced”. For the same compound, the “Zinc Loss” value in [2] (3,000 μM NOBA, 2 hr) is 52%; in data set [2] (6,000 μM NOBA, 4 hr), 83%. Besides, the “Zinc, NOBA-Treated Sample” value in [2] (3,000 μM NOBA, 2 hr, control 0.21) is 0.11 µg/mL; in data set [2] (6,000 μM NOBA, 4 hr, control 0.24), 0.04 µg/mL. Also, the “loss of viral proteins in the pellet” value in [2] (3000 or 6000 μM NOBA) is “No significant loss”. For the same compound, in [3], the “inhibition of HIV-1 infection” value is on record as “inhibit infection”.
